Reference: BigSolDB 2.1

CCN(CC)CCNC(=O)c1c(C)[nH]c(/C=C2\C(=O)Nc3ccc(F)cc32)c1C.O=C(O)C[C@H](O)C(=O)O
Conditions	solubility (mole fraction)
in PEG-400, 298.2 K	0.00634
in PEG-400, 303.2 K	0.0076
in PEG-400, 308.2 K	0.00996
in PEG-400, 313.2 K	0.0129
in PEG-400, 318.2 K	0.0167

solubility (mole fraction)
Conditions	in ethanol	in ethylene glycol	in isopropanol	in propylene glycol	in transcutol	in water
298.2 K	0.00277	0.00104	0.00634	0.00179	0.00997	3.72e-06
303.2 K	0.00321	0.00139	0.0076	0.00228	0.0117	4.74e-06
308.2 K	0.00372	0.00186	0.00996	0.00303	0.0136	6.09e-06
313.2 K	0.0043	0.00244	0.0129	0.00385	0.0163	8.46e-06
318.2 K	0.00516	0.00313	0.0167	0.00483	0.0187	1.05e-05
